{"source": "patent US12062414B1", "about": "“System and method for predicting susceptibility of genus Klebsiella to amikacin” (Peking Union Medical College Hospital, Chinese Academy of …, priority 2023, dated 2024)", "origin": "cited, not measured here", "tested_on": "carbapenem-resistant Klebsiella pneumoniae", "conditions": "isolated from 2014-2017; data from 252/403"}
{"molecule": "NCC[C@H](O)C(=O)N[C@@H]1C[C@H](N)[C@@H](O[C@H]2O[C@H](CN)[C@@H](O)[C@H](O)[C@H]2O)[C@H](O)[C@H]1O[C@H]1O[C@H](CO)[C@@H](O)[C@H](N)[C@H]1O", "note": "[amikacin]", "values": [{"measurement": "resistance rate to amikacin", "result": 62.5, "unit": "%"}]}
